Experiments:
MDA-MB-435 cells [1] = assay: Monolayer growth inhibition, Alamar blue assay; type: cell-based; details: Homo sapiens; MDA-MB-435 (Melanoma), 5 days, single dose on day 1
From the text: (§1) In all instances a single dose was given on day 1 of the experiment.

PC3 cells [2] = assay: Monolayer growth inhibition, Alamar blue assay; type: cell-based; details: Homo sapiens, PC-3; PC3 (Prostate), 5 days, single dose on day 1
From the text: as §1

JIMT-1 cells [3] = assay: Monolayer growth inhibition, Alamar blue assay; type: cell-based; details: Homo sapiens; JIMT-1 (HER2), 5 days, single dose on day 1
From the text: as §1

SUM149 cells [4] = assay: Monolayer growth inhibition, Alamar blue assay; type: cell-based; details: Homo sapiens; SUM149 (TNBC, BRCA Mutant), 5 days, single dose on day 1
From the text: as §1

MDA-MB-468 cells [5] = assay: Monolayer growth inhibition, Alamar blue assay; type: cell-based; details: Homo sapiens; MDA-MB-468 (TNBC), 5 days, single dose on day 1
From the text: as §1

HCC1143 cells [6] = assay: Monolayer growth inhibition, Alamar blue assay; type: cell-based; details: Homo sapiens; HCC1143 (TNBC), 5 days, single dose on day 1
From the text: as §1

MDA-MB-231 cells [7] = assay: Monolayer growth inhibition, Alamar blue assay; type: cell-based; details: Homo sapiens; MDA-MB-231 (TNBC), 5 days, single dose on day 1
From the text: as §1

HCC1937 cells [8] = assay: Monolayer growth inhibition, Alamar blue assay; type: cell-based; details: Homo sapiens; HCC1937 (TNBC, BRCA Mutant), 5 days, single dose on day 1
From the text: as §1

4T1 cells [9] = assay: Monolayer growth inhibition, Alamar blue assay; type: cell-based; details: Mus musculus; 4T1 (TNBC), 5 days, single dose on day 1
From the text: as §1

SUM149-PTXR cells [10] = assay: Monolayer growth inhibition, Alamar blue assay; type: cell-based, Human; details: Homo sapiens; SUM149-PTXR (TNBC, BRCA Mutant), 5 days, single dose on day 1
From the text: as §1

T47D cells [11] = assay: Monolayer growth inhibition, Alamar blue assay; type: cell-based, Human; details: Homo sapiens; T47D (ER/PR), 5 days, single dose on day 1
From the text: as §1

All cell lines [12] = assay: Monolayer growth inhibition, Alamar blue assay, range over all cell lines; type: cell-based; details: 120 h; range of IC50 over all cell lines of the table; read-out: IC50 Values - Alamar Blue (5 Days), Range, All
From the text: as §1

JIMT-1 cells [13] = assay: Monolayer growth inhibition, crystal violet assay; type: cell-based; details: Homo sapiens; JIMT-1 (HER2), 5 days, single dose on day 1
From the text: (§2) In all instances a single dose was given on day 1 of the experiment. […] Complete (100%) growth suppression was achievable with several of the compounds in multiple different cell lines.

MDA-MB-468 cells [14] = assay: Monolayer growth inhibition, crystal violet assay; type: cell-based; details: Homo sapiens; MDA-MB-468 (TNBC), 5 days, single dose on day 1
From the text: as §2

T47D cells [15] = assay: Monolayer growth inhibition, crystal violet assay; type: cell-based; details: Homo sapiens; T47D (ER/PR), 5 days, single dose on day 1
From the text: as §2

HCC1937 cells [16] = assay: Monolayer growth inhibition, crystal violet assay; type: cell-based; details: Homo sapiens; HCC1937 (TNBC, BRCA Mutant), 5 days, single dose on day 1
From the text: as §2

All cell lines [17] = assay: Monolayer growth inhibition, crystal violet assay, range over all cell lines; type: cell-based; details: 120 h; range of IC50 over all cell lines of the table; read-out: IC50 Values - Crystal Violet (5 Days), Range, All
From the text: as §2

MDA-MB-435 cells [18] = assay: Monolayer growth inhibition, crystal violet assay; type: cell-based; details: Homo sapiens; MDA-MB-435 (Melanoma), 5 days, single dose on day 1
From the text: as §1

PC3 cells [19] = assay: Monolayer growth inhibition, crystal violet assay; type: cell-based; details: Homo sapiens, PC-3; PC3 (Prostate), 5 days, single dose on day 1
From the text: as §1

SUM149-PTXR cells [20] = assay: Monolayer growth inhibition, crystal violet assay; type: cell-based; details: Homo sapiens; SUM149-PTXR (TNBC, BRCA Mutant), 5 days, single dose on day 1
From the text: as §1

SUM149 cells [21] = assay: Monolayer growth inhibition, crystal violet assay; type: cell-based; details: Homo sapiens; SUM149 (TNBC, BRCA Mutant), 5 days, single dose on day 1
From the text: as §1

HCC1143 cells [22] = assay: Monolayer growth inhibition, crystal violet assay; type: cell-based; details: Homo sapiens; HCC1143 (TNBC), 5 days, single dose on day 1
From the text: as §1

MDA-MB-231 cells [23] = assay: Monolayer growth inhibition, crystal violet assay; type: cell-based; details: Homo sapiens; MDA-MB-231 (TNBC), 5 days, single dose on day 1
From the text: as §1

4T1 cells [24] = assay: Monolayer growth inhibition, crystal violet assay; type: cell-based; details: Mus musculus; 4T1 (TNBC), 5 days, single dose on day 1
From the text: as §1

4T1 cells [25] = assay: Soft agar growth inhibition assay; type: cell-based; details: Mus musculus; 4T1 (TNBC), 14-22 days; read-out: IC50 Values - Soft Agar (14-22 Days)
Protocol: Two agar (Alfa Aesar) solutions (0.8% w/v and 0.4% w/v) were prepared in ultrapure water. The 0.8% agar solution was mixed in equal volumes with 2× media previously prepared from powder (Life Technologies) following the manufacturer's instructions and filter sterilized. The 0.8% agar and media solution was added to 24 well plates (Mandel Scientific) at 500 μl per well. The plates were placed in a humidified incubator at 37° C. with 5% CO2. Next, the 0.4% agar solution was mixed in equal volumes with 2× media. Breast cancer cell lines were added to this solution to achieve a final concentration of 2×10^4 cells per well and […] was added to each well on top of the bottom agar and media layer. […] The plates were returned to the incubator for 10-32 days, with a re-dosing of compounds or DMSO every 7 days. After 10-32 days, colonies were counted in 3 different fields of view for each well.
Representative compounds described herein were tested in the soft agar growth inhibition assay against the 4T1 breast cancer cell line.

MDA-MB-468 cells [26] = assay: Soft agar growth inhibition assay; type: cell-based, Human; details: Homo sapiens; MDA-MB-468 (TNBC), 14-22 days
[27] = Solubility assessment, 20 mg/ml solution; type: physicochemical
Protocol: Solubility is an important property for therapeutic drug candidates. Poor solubility can lead to low bioavailability resulting in suboptimal drug delivery. It can also prevent the evaluation of test agents in animals because the concentration(s) needed to achieve the desired effect cannot be achieved to poor solubility. For solubility assessments, small molecules targeting RSK were compared. For these assessments, 100 mM solutions of the compounds dissolved in DMSO were diluted in DMEM growth media (Life Technologies) supplemented with fetal bovine serum (FBS, Life Technologies) and 100 units/ml penicillin and 100 units/ml streptomycin (Life Technologies) to make 20 mg/ml solutions. Once diluted, the solutions were vortexed and examined for the formation of precipitates. […] For Compound 26, a 100 mM solution of the compound dissolved in DMSO was diluted in phosphate buffered saline (Life Technologies) to make a 20 mg/ml solution. The stock of […] was chosen because this is the upper end of what would be required to dose mice for a range of studies including MTD, PK, PD and efficacy. The pH of this solution was determined to be 2, as previously described. […] At high concentrations some RSK inhibitors were highly soluble while others were not. Compound 0 is (R)—N-(1-benzyl-1H-pyrazol-4-yl)-9-methyl-6-oxo-6,7,8,9-tetrahydropyrido[3′,2′:4,5]pyrrolo[1,2-a]pyrazine-2-carboxamide. Compound 0 was not soluble, whereas Compounds 18, 20, 21, 25 and 26 were soluble under the same conditions (Table 5).

MDA-MB-231 cells [28] = assay: Soft agar growth inhibition assay; type: cell-based; details: Homo sapiens; MDA-MB-231 (TNBC), 14-22 days; read-out: IC50 Values - Soft Agar (14-22 Days)

SMILES	IC50 (MDA-MB-435 cells [1]) [µM]	IC50 (PC3 cells [2]) [µM]	IC50 (JIMT-1 cells [3]) [µM]	IC50 (SUM149 cells [4]) [µM]	IC50 (MDA-MB-468 cells [5]) [µM]	IC50 (HCC1143 cells [6]) [µM]	IC50 (MDA-MB-231 cells [7]) [µM]	IC50 (HCC1937 cells [8]) [µM]	IC50 (4T1 cells [9]) [µM]	IC50 (SUM149-PTXR cells [10]) [µM]	IC50 (T47D cells [11]) [µM]	IC50 (All cell lines [12]) [µM]	IC50 (JIMT-1 cells [13]) [µM]	IC50 (MDA-MB-468 cells [14]) [µM]	IC50 (T47D cells [15]) [µM]	IC50 (HCC1937 cells [16]) [µM]	IC50 (All cell lines [17]) [µM]	IC50 (MDA-MB-435 cells [18]) [µM]	IC50 (PC3 cells [19]) [µM]	IC50 (SUM149-PTXR cells [20]) [µM]	further results
C[C@@H]1CNC(=O)c2cc3ccc(NC(=O)c4cnn(Cc5cccc(N)c5)c4)nc3n21 [Compound 19, (R)-1-(3-aminobenzyl)-N-(9-methyl-6-oxo-6,7,8,9-tetrahydropyrido[3′,2′:4,5]pyrrolo[1,2-a]pyrazin-2-yl)-1H-pyrazole-4-carboxamide]	10.5 ± 2.2	17.1 ± 8.7	37.3 ± 9	15.8 ± 6.4	14.7 ± 4.1	11.5 ± 3.6	25.6 ± 1.5	16.6 ± 11.5	20.6 ± 2.5	14.1 ± 4.3	13.5 ± 4.6	10.5 to 37.3	34 ± 12.8	7.4 ± 1	7.7 ± 1.5	19.9 ± 8.7	7.4 to 34	10.3 ± 3.5	14.9 ± 6.6	13 ± 1.3	IC50 (SUM149 cells [21]): 11.1 ± 3.9 µM; IC50 (HCC1143 cells [22]): 13.8 ± 4.3 µM; IC50 (MDA-MB-231 cells [23]): 17.2 ± 1.9 µM; IC50 (4T1 cells [24]): 15.8 ± 4.8 µM
C[C@@H]1CNC(=O)c2cc3ccc(C(=O)Nc4ccccc4C(N)=O)nc3n21 [Compound 21, (R)—N-(2-carbamoylphenyl)-9-methyl-6-oxo-6,7,8,9-tetrahydropyrido[3′,2′:4,5]pyrrolo[1,2-a]pyrazine-2-carboxamide]	8.3 ± 5.3	7.1 ± 0.9	12.6 ± 6.4	2.7 ± 1.3	6.5 ± 4.5	5.4 ± 3.7	14.7 ± 4.3	8.3 ± 2.4	1.2 ± 0.3	1.5 ± 0.8	8 ± 3.8	1.2 to 14.7	11.3 ± 4.1	4.6 ± 1.4	3.7 ± 2.7	11 ± 1	1.1 to 11.3	4.8 ± 2.1	4.3 ± 0.5	2 ± 0.2	IC50 (4T1 cells [25]): 3.1 ± 0.6 µM; IC50 (MDA-MB-468 cells [26]): 0.4 ± 0.1 µM; Solubility, 20 mg/ml Solution ([27]; 100 mM in DMSO diluted in DMEM growth media to 20 mg/ml): Soluble; pH of 20 mg/ml solution ([27]; DMSO stock diluted in DMEM, pH test strips): 9; IC50 (MDA-MB-231 cells [28]): 2 ± 1 µM; IC50 (SUM149 cells [21]): 2.4 ± 1.3 µM; IC50 (HCC1143 cells [22]): 9.5 ± 5.6 µM; IC50 (MDA-MB-231 cells [23]): 9.1 ± 0.8 µM; IC50 (4T1 cells [24]): 1.1 ± 0.7 µM

Reference: patent US10081632B2, “Substituted tetrahydropyrido[3′,2′:4,5]pyrrolo[1,2-α]pyrazine-2-carboxamides as RSK inhibitors” (Phoenix Molecular Designs, priority 2016, dated 2018)
